In US11484608B2, “Non-invasive assessment of hepatic mitochondrial metabolism by positional isotopomer NMR tracer analysis (PINTA)” (YALE UNIVERSITY, priority 2017, dated 2022):

Test system: primary hepatocytes (cytosolic and mitochondrial calcium)
Experiment: Ca2+ imaging in isolated hepatocytes
Format: cell-based, mouse
Settings: isolated WT hepatocytes (not InsP3R-I KO); 100 nM glucagon or 50 nM vasopressin
Procedure: Primary hepatocytes were isolated by the Yale Liver Center from wild-type and InsP3R-I KO mice and plated on glass coverslips coated with Rat Collagen Type I. Cells were loaded with the ratiometric cytosolic Ca^2+ indicator dye, Fura-2 AM (Thermo Fisher Scientific), or the mitochondrial matrix-targeted Ca^2+ indicator, Rhod-2 AM (Thermo Fisher Scientific) according to manufacturer's instructions. Ca^2+ imaging experiments were performed in 4-(2-hydroxyethyl)-1-piperazine ethanesulfonic acid (HEPES)-buffered balanced salt solution (25 mM HEPES, 121 mM NaCl, 4.7 mM KCl, 1.2 mM MgSO4, 1.2 mM KPO4, 5 mM NaHCO3, 2.0 mM CaCl2, 10 mM Glucose, pH 7.4) with or without the PKA inhibitor H-89 (25 μM) two to five hr following initial plating. Coverslips were transferred to a custom-built perfusion chamber on the stage of an inverted microscope connected to a RedShirtImaging camera (Olympus Life Science, Waltham, Mass.). […] For cytoplasmic calcium readings, changes in fluorescence (F, λ=340) were normalized by the initial fluorescence (F0, λ=380) and were expressed as F/F0. […] Individual cell responses were normalized to their respective baseline Rhod-2 AM fluorescence values, and changes were expressed as Normalized Δ Fluorescence.

glucagon
mitochondrial and cytosolic calcium signaling: increases
